# Molecular target: T1, SOS1 (Homo sapiens, UniProt Q07889)
# T1 construct: adding equal amounts of HIS—SOS1cat (160 nM; Cytoskeleton, US); His (N); purchased Cytoskeleton, US
# T1 sequence (Q07889 564-1049 limits assumed): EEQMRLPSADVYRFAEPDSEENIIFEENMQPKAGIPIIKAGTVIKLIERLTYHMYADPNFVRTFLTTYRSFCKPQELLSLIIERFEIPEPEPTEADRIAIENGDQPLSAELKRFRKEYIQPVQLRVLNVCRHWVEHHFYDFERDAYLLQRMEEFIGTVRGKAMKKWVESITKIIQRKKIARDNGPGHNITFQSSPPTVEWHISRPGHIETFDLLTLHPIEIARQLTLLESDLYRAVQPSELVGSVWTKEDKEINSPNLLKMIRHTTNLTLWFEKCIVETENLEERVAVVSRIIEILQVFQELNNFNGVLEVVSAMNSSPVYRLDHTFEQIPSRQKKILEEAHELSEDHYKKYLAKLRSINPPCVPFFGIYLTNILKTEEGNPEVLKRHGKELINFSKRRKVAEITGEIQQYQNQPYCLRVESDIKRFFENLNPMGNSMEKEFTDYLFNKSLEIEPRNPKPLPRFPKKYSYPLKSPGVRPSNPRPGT
# Test: SOS-catalyzed nucleotide exchange assay (HTRF, SOS1-mediated GTP loading of KRAS G12D)
# Type: biochemical
# Details: GST-KRAS G12D, HIS-SOS1cat, IC50 class
# Method: SOS1 activity was measured by SOS1-mediated GTP loading quantification of KRAS^G12D. GTP loaded KRAS^G12D was detected by HTRF (Homogeneous Time Resolved Fluorescence) using anti-GST terbium (Cisbio, France) as a donor and a fluorescence GTP analogue (EDA-GTP-DY-647P1, [DY-647P1 labeled 2′/3′-O-(2-aminoethyl-carbamoyl)guanosine-5′-triphosphate (Jena bioscience, Germany)]) as an acceptor.
# Assay buffer was composed of 10 mM HEPES pH 7.4, 150 mM NaCl, 5 mM MgCl2, 1 mM DTT, 0.05% BSA Fraction V pH 7.0 (Sigma) and 0.0025% (v/v) Igepal (Sigma). KRAS^G12D working solution was prepared by adding equal amounts of GST-KRAS^G12D (100 nM) and anti-GST-terbium (2 nM; Cisbio, France) to the assay buffer and culturing on ice for 10 minutes. SOS1cat working solution was prepared by adding equal amounts of HIS—SOS1cat (160 nM; Cytoskeleton, US) and EDA-GTP-DY-647P1 (200 nM; Jena bioscience, Germany) to the assay buffer. Control solution was prepared by adding equal volumes of EDA-GTP-DY-647P1 and the assay buffer for normalization control to exclude GEF-independent GTP loading and background signals. In order to induce a reaction, 5 μL of the SOS1cat working solution or the control solution was injected into each well. 5 μL of a compound having various concentrations from 128 pM to 10 μM was added to wells containing the SOS1cat working solution and incubated at room temperature for 10 minutes to bind to SOS1.
# 10 μL of the KRAS^G12D solution was added to each well and incubated for 30 minutes at room temperature while shaking. HTRF was measured using a Thermo Varioskan (excitation 334 nm, emission 665 nm). The IC50 of each inhibitor was analyzed using Graphad Prism.
row,IC50 [nM],SMILES
1,1000 to 10000,C[C@@H](NC(=O)c1ccc(=O)n(-c2ccc(-c3ccccc3)cc2)n1)c1cc(N)cc(C(F)(F)F)c1 [Example 24]
2,< 1000,"C[C@@H](NC(=O)c1ccc(=O)n(-c2cccc(-c3ccnn3C)c2)c1)c1cccc(C(F)(F)CO)c1F [Example 78, N-[(1R)-1-[3-(1,1-difluoro-2-hydroxyethyl)-2-fluorophenyl]ethyl]-1-[3-(1-methyl-1H-pyrazol-5-yl)phenyl]-6-oxo-1,6-dihydropyridine-3-carboxamide]"

# Molecular target: T2, KRAS^G12C::SOS1 (Homo sapiens, UniProt Q07889)
# T2 construct: purchased CISBIO, FRANCE 64KRASG12PEH
# T2 sequence (Q07889 1-1333): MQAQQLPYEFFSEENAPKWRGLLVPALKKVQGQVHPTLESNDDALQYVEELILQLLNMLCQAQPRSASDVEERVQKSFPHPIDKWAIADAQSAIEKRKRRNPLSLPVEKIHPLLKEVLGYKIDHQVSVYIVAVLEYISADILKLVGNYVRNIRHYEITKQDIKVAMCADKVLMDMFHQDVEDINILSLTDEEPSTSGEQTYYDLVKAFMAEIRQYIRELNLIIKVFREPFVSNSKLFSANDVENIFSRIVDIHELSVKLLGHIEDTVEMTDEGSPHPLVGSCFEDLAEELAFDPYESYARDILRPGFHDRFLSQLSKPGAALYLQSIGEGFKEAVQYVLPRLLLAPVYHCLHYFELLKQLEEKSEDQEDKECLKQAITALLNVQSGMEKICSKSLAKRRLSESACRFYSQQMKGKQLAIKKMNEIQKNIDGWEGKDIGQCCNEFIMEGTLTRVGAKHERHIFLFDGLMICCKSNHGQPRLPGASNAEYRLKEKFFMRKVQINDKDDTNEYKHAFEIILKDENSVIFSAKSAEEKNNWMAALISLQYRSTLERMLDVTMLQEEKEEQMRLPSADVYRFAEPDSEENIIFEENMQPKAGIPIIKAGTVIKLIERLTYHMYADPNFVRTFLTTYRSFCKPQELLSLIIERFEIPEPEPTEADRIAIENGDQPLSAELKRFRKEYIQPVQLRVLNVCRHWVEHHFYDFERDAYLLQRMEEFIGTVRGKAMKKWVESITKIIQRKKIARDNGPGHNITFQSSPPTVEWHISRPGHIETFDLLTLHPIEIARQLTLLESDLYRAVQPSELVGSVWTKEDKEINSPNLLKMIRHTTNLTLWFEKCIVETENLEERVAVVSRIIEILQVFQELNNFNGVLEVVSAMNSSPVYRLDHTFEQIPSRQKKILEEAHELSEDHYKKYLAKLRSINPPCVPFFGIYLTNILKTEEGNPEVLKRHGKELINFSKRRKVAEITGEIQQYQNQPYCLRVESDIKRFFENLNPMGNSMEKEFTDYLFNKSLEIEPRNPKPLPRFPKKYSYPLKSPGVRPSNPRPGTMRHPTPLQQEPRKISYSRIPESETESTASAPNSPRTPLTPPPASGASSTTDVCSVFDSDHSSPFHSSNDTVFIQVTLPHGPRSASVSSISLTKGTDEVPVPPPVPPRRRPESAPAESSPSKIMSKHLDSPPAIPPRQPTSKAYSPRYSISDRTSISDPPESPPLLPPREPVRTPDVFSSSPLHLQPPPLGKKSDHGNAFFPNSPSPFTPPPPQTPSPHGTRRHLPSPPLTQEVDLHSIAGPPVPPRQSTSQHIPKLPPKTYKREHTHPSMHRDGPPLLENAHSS
# Test: KRAS G12C::SOS1 protein-protein interaction (PPI) inhibition assay (HTRF binding kit)
# Details: max inhibitor concentration 3 μM, three replicates, IC50 class
# Method: Protein-protein interaction between SOS1 and KRAS^G12C was detected using KRAS G12C/SOS1 binding kit from CISBIO (64KRASG12PEH, CISBIO, FRANCE) according to the manufacturer's assay method. Briefly, the maximum concentration of an inhibitor sample was set to be 3 μM, and the inhibitor sample was diluted 7 times by 1/3, and samples having a total of 8 concentrations were prepared. In HTRF (Homogeneous Time-Resolved Fluorescence) exclusive 96-well low-volume white plate (66PL96005, CISBIO, FRANCE), 2 μL of an inhibitor sample prepared for each concentration, 5 μL of a mixed solution of Tag1 labeled KRAS^G12C protein and GTP diluted with the dilution solution provided by the manufacturer, and 5 μL of Tag2 labeled SOS1 protein were mixed, and added with 8 μL of a diluted solution where anti-Tag1 KRAS^G12CXL665 (HTRF acceptor) labeled antibody and anti-Tag2 SOS1 Terbium cryptate (HTRF donor) labeled antibody were mixed in an equal ratio and cultured at room temperature for 2 hours.
row,SMILES,IC50 [nM]
1,C[C@@H](NC(=O)c1ccc(=O)n(-c2cccc(C(C)(C)O)c2)n1)c1cc(N)cc(C(F)(F)F)c1 [Example 171],< 1000
2,C[C@@H](NC(=O)c1ccc(=O)n(-c2ccncc2F)n1)c1cc(N)cc(C(F)(F)F)c1 [Example 191],< 1000
3,"Cc1c([C@@H](C)NC(=O)c2ccc(=O)n(-c3ccccc3F)n2)cc(N)cc1C(F)(F)F [Example 244, N-[(1R)-1-[5-amino-2-methyl-3-(trifluoromethyl)phenyl]ethyl]-1-(2-fluorophenyl)-6-oxo-pyridazine-3-carboxamide]",< 1000
4,"C[C@@H](NC(=O)c1ccc(=O)n(-c2cccc(C(=O)O)c2)n1)c1cc(N)cc(C(F)(F)F)c1 [Example 249, 3-(3-{[(1R)-1-[3-amino-5-(trifluoromethyl)phenyl]ethyl]carbamoyl}-6-oxo-1,6-dihydropyridazin-1-yl)benzoic acid]",< 1000
5,"C[C@@H](NC(=O)c1ccc(=O)n(-c2ccccc2F)n1)c1ccc(Br)s1 [Example 265, N-[(1R)-1-(5-bromo-2-thienyl)ethyl]-1-(2-fluorophenyl)-6-oxo-pyridazine-3-carboxamide]",< 1000
6,CNCc1ccc(Cl)cc1-c1ccc([C@@H](C)NC(=O)c2ccc(=O)n(-c3cccnc3)c2)s1 [Example 284],< 1000
7,"C[C@@H](NC(=O)c1ccc(=O)n(-c2cccc(-c3cnoc3)c2)n1)c1cc(N)cc(C(F)(F)F)c1 [Example 322, N-[(1R)-1-[3-amino-5-(trifluoromethyl)phenyl]ethyl]-1-(3-isoxazol-4-ylphenyl)-6-oxo-pyridazine-3-carboxamide]",< 1000
8,"C[C@@H](NC(=O)c1ccc(=O)n(-c2cccc(-c3cnnn3C)c2)n1)c1cccc(C(F)(F)CO)c1F [Example 370, N-[(1R)-1-[3-(1,1-difluoro-2-hydroxy-ethyl)-2-fluoro-phenyl]ethyl]-1-[3-(3-methyltriazol-4-yl)phenyl]-6-oxo-pyridazine-3-carboxamide]",< 1000
9,"C[C@@H](NC(=O)c1ccc(=O)n(-c2cc(-c3cnnn3C)ccc2F)n1)c1cc(N)cc(C(F)(F)F)c1 [Example 371, N-[(1R)-1-[3-amino-5-(trifluoromethyl)phenyl]ethyl]-1-[2-fluoro-5-(3-methyltriazol-4-yl)phenyl]-6-oxo-pyridazine-3-carboxamide]",< 1000
10,"Cc1cnnn1-c1cccc(-n2cc(C(=O)N[C@H](C)c3cc(N)cc(C(F)(F)F)c3)ccc2=O)c1 [Example 377, N-[(1R)-1-[3-amino-5-(trifluoromethyl)phenyl]ethyl]-1-[3-(5-methyltriazol-1-yl)phenyl]-6-oxo-pyridine-3-carboxamide]",< 1000
11,"C[C@@H](NC(=O)c1ccc(=O)n(-c2cc(F)cc(-c3cnnn3C)c2)n1)c1cc(N)cc(C(F)(F)F)c1 [Example 391, N-[(1R)-1-[3-amino-5-(trifluoromethyl)phenyl]ethyl]-1-[3-fluoro-5-(3-methyltriazol-4-yl)phenyl]-6-oxo-pyridazine-3-carboxamide]",< 1000
12,"[2H]C([2H])([2H])n1nncc1-c1cccc(-n2nc(C(=O)N[C@H](C)c3cccc(C(F)(F)CO)c3F)ccc2=O)c1 [Example 393, N-[(1R)-1-[3-(1,1-difluoro-2-hydroxy-ethyl)-2-fluoro-phenyl]ethyl]-6-oxo-1-[3-[3-(trideuteriomethyl)triazol-4-yl]phenyl]pyridazine-3-carboxamide]",< 1000

# More lines, now with the values ahead:
row,IC50 [nM],SMILES
1,1000 to 10000,C[C@@H](NC(=O)c1ccc(=O)n(-c2cccc(-c3ccccc3)c2)n1)c1cc(N)cc(C(F)(F)F)c1 [Example 212]
2,< 1000,"Cc1cnnn1-c1cccc(-n2nc(C(=O)N[C@H](C)c3cc(N)cc(C(F)(F)F)c3)ccc2=O)c1 [Example 378, N-[(1R)-1-[3-amino-5-(trifluoromethyl)phenyl]ethyl]-1-[3-(5-methyltriazol-1-yl)phenyl]-6-oxo-pyridazine-3-carboxamide]"
3,< 1000,"C[C@@H](NC(=O)c1ccc(=O)n(-c2ccc(F)c(-c3cnnn3C)c2)n1)c1cc(N)cc(C(F)(F)F)c1 [Example 389, N-[(1R)-1-[3-amino-5-(trifluoromethyl)phenyl]ethyl]-1-[4-fluoro-3-(3-methyltriazol-4-yl)phenyl]-6-oxo-pyridazine-3-carboxamide]"
4,< 1000,C[C@@H](NC(=O)c1ccc(=O)n(-c2ccc(F)c(-c3cnnn3C)c2)n1)c1cccc(C(F)(F)CO)c1F [Example 390]
5,< 1000,"C[C@@H](NC(=O)c1ccc(=O)n(-c2cncc(-c3cnnn3C)c2)n1)c1cc(N)cc(C(F)(F)F)c1 [Example 392, N-[(1R)-1-[3-amino-5-(trifluoromethyl)phenyl]ethyl]-1-[5-(3-methyltriazol-4-yl)-3-pyridyl]-6-oxo-pyridazine-3-carboxamide]"

# Reference: US20240400518A1, “SOS1 INHIBITOR AND USE THEREOF” (KANAPH THERAPEUTICS INC., priority 2021, published 2024)
